The numbers were not newly measured in article PMC4206604 (Journal of pharmaceutical sciences, 2014), which cites them from elsewhere.

This data set deals with T1, NTCP (Homo sapiens, UniProt Q14973).
T1 sequence (Q14973 1-349): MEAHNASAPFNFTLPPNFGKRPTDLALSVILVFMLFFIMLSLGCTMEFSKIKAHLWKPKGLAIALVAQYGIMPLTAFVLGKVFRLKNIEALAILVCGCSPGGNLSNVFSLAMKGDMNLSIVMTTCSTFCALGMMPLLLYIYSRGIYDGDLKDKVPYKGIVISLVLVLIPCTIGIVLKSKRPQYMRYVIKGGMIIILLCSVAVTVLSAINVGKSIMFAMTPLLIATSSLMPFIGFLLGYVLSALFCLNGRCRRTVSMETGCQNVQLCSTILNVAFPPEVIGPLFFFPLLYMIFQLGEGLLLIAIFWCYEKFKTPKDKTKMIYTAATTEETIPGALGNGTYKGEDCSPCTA
The settings on record: read-out: NTCP Km; same cell line.

For orientation: Km means the substrate concentration at which the rate is half of its maximum. As for `C[C@H](CCC(=O)NCCS(=O)(=O)O)[C@H]1CC[C@H]2[C@@H]3[C@H](O)C[C@@H]4C[C@H](O)CC[C@]4(C)[C@H]3C[C@H](O)[C@]12C` [taurocholate], the Michaelis constant (Km) was 5.31 µM.
